Source: patent US9260404B1, “Preparation of ambrox from labdanes of Dysoxylum hongkongense, and the preparation of new diterpenoids from Dysoxylum hongkongense” (National Taiwan University, priority 2014, dated 2016)
≈ marks a conversion by molar mass, not a printed value.

Legend:
[1] = test system: human hepatocellular carcinoma Hep-G2; assay: Cytotoxic assay (MTT), Hep-G2; type: cell-based
Procedure: (§1) Cytotoxic Assay. Human hepatocellular carcinoma Hep-G2, human colon adenocarcinoma WiDr and human laryngeal carcinoma Hep-2 were used as the targets for research, and an antitumor drug, mitomycin C, was the control. The effective dosage (ED50, μg/mL) of the compounds on the cancer cell cytotoxicity was determined by the well-known cytotoxicity assay (3-(4,5-dimethylthiazol-2-yl)-2,5-diphenyltetrazolium bromide (MTT) assay) in the art.

[2] = test system: human colon adenocarcinoma WiDr; assay: Cytotoxic assay (MTT), WiDr; type: cell-based
Procedure: as §1

[3] = test system: human laryngeal carcinoma Hep-2; assay: Cytotoxic assay (MTT), Hep-2; type: cell-based; conditions: Hep-2, MTT assay
Procedure: as §1

[4] = test system: HSV-1 (KOS strain); assay: Anti-HSV-1 plaque reduction assay in Vero cells; type: cell-based, Herpes Simplex Virus-1; conditions: for inhibition (in vitro inhibitory activity against the HSV-1 virus): at 10 μM, plaque formation in Vero cells; for inhibition at 10 µM: Human alphaherpesvirus 1, plaque formation in Vero cells, read-out: inhibition (in vitro inhibitory activity against the HSV-1 virus)
Procedure: Anti Herpes Simplex Virus-1 (HSV-1) Assay, Cell Culture and Virus. Vero cells were cultured in minimal essential medium (MEM; GIBCO®, Grand Island, N.Y.) supplemented with 10% fetal calf serum (FCS; Hyclone™, Logan, Utah), 100 U/mL penicillin and 100 μg/mL streptomycin and incubated at 37° C. in a 5% CO2 incubator. To prepare a stock of HSV-1 (KOS strain, VR-1493, ATCC), Vero cells were infected with HSV-1 at a multiplicity of infection points on three plaque forming units (PFU)/cell and harvested at 24 hours postinfection and centrifuged at 1500×g (Centrifuge 5810 R, Eppendorf) at 4° C. for 20 minutes. The supernatant was collected and stored at −70° C. for use.
Plaque Reduction Assay. The bioassay followed a procedure described previously (Kuo et al., Samarangenin B from Limonium sinense Suppresses Herpes Simplex Virus Type 1 Replication in Vero Cells by Regulation of Viral Macromolecular Synthesis. Antimicrob. Agents Chemother., 2002, 46(9): 2854-2864.). […] The viruses were adsorbed for 1 hour at 37° C. and 1% methylcellulose was added to each well. After 5 days, the virus plaques formed in Vero cells were counted by crystal violet staining. The activities of various compounds and acyclovir for inhibition of plaque formation were calculated.

[5] = test system: elastase release by human neutrophils; assay: Elastase release by human neutrophils in response to FMLP/CB; type: cell-based; conditions: 10 μg/mL
Procedure: (§2) Anti-inflammatory Assays, Inhibitory Effect on Superpxide Anion Generation and Elastase Release by Human Neutrophils. Neutrophils were obtained by means of dextran sedimentation and Ficoll centrifugation. Superoxide generation and elastase release were carried out according to a procedure described previously (Hwang et al., Inhibition of Superoxide Anion and Elastase Release in Human Neutrophils by 3′-Isopropoxychalcone via a cAMP-dependent Pathway. Br. J. Pharmacol., 2006, 148(1): 78-87.; and Liaw et al., Frajunolides E-K, Briarane Diterpenes from Junceella fragilis. J. Nat. Prod., 2008, 71(9): 1551-1556.). Superoxide anion production was assayed by monitoring the superoxide dismutase-inhibitable reduction of ferricytochrome c. Elastase release experiments were performed using MeO-Suc-Ala-Ala-Pro-Val p-nitroanilide as the elastase substrate.

[6] = test system: superoxide anion generation by human neutrophils; assay: Superoxide anion generation by human neutrophils in response to FMLP/CB; type: cell-based; conditions: 10 μg/mL
Procedure: as §2

Q: What does the source list for `C=C[C@@]1(C)O[C@]2(C)CC[C@H]3C(C)(C)C(=O)CC[C@]3(C)[C@H]2C[C@H]1O` [Compound 8, Dysongensin B]?
A: ED50 cytotoxic activity against Hep-G2 cells [1]: 18.05 ± 0.58 µg/mL (≈ 56.3 µM); ED50 cytotoxic activity against WiDr cells [2]: 19.13 ± 0.56 µg/mL (≈ 59.7 µM); ED50 cytotoxic activity against Hep-2 cells [3]: 16.07 ± 0.17 µg/mL (≈ 50.1 µM)

Q: Which “inhibition (in vitro inhibitory activity against the HSV-1 virus)” value [4] does the source give for `C=C[C@@](C)(O)[C@@H]1C[C@@H]2[C@@]3(C)CCC(=O)C(C)(C)[C@@H]3CC[C@@]2(C)O1` [Compound 9, Dysongensin C] here?
A: 32.7±4.0%

Q: How did the inhibition at 10 µM [4] turn out when `C=C[C@@](C)(O)[C@H]1C[C@@H]2[C@@]3(C)CCC(=O)C(C)(C)[C@@H]3CC[C@@]2(C)O1` [Compound 10, Dysongensin D] was run?
A: 25.2 ± 6%

Q: For `C=C[C@](C)(O)[C@H]1C[C@@H]2[C@@]3(C)CCC(=O)C(C)(C)[C@@H]3CC[C@@]2(C)O1` [Compound 11, Dysongensin E], which “anti-inflammatory effect on elastase release” value [5] is on record?
A: 31.29±6.67%

Q: With `C=C[C@](C)(O)[C@H]1C[C@@H]2[C@@]3(C)CC[C@H](O)C(C)(C)[C@@H]3CC[C@@]2(C)O1` [Compound 12, Dysongensin F] as the compound, how does the “ED50 cytotoxic activity against Hep-2 cells” value [3] read?
A: 17.92 ± 0.25 µg/mL (≈ 55.6 µM)

Q: With `C=C[C@@](O)(CO)[C@H]1C[C@@H]2[C@@]3(C)CCC4C[C@@]4(C)[C@@H]3CC[C@@]2(C)O1` (stereo partly drawn) [Compound 13, Dysongensin G] as the compound, how does the “ED50 cytotoxic activity against Hep-G2 cells” value [1] read?
A: 37.78 ± 0.81 µg/mL (≈ 118 µM)

Q: And the “inhibition (in vitro inhibitory activity against the HSV-1 virus)” value [4]?
A: 29.3±9.0%

Q: Which “ED50 cytotoxic activity against Hep-G2 cells” value [1] does the source give for `C=C[C@](O)(CO)[C@@H]1C[C@@H]2[C@@]3(C)CCC4C[C@@]4(C)[C@@H]3CC[C@@]2(C)O1` (stereo partly drawn) [Compound 14, Dysongensin H] here?
A: 16.86 ± 0.85 µg/mL (≈ 52.6 µM)

Q: And the “anti-inflammatory effect on superoxide anion generation” value [6]?
A: 25.33±4.04%

Q: And the “ED50 cytotoxic activity against WiDr cells” value [2]?
A: 15.45 ± 0.73 µg/mL (≈ 48.2 µM)

Q: And the inhibition at 10 µM [4]?
A: 29.7 ± 6%

Q: Dysongensin A [Compound 1] was tested. Which “ED50 cytotoxic activity against Hep-G2 cells” value [1] did it give?
A: 20.34 ± 0.58 µg/mL

Q: And the “ED50 cytotoxic activity against WiDr cells” value [2]?
A: 18.67 ± 0.56 µg/mL
